Assay results reported in PubChem BioAssay (NCI).
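Tested at 5 concentrations; 48 h exposure; 96-well plates; endpoints linearly interpolated, else capped at highest concentration. TGI denotes the concentration required for complete inhibition of growth.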

Legend:
Assay in all cases: NCI tumour cell line growth inhibition, 48 h
CAKI-1 renal = tested on: CAKI-1 renal
DU-145 prostate = tested on: DU-145 prostate
MDA-MB-435 = tested on: MDA-MB-435
SK-MEL-28 melanoma = tested on: SK-MEL-28 melanoma
MOLT-4 leukemia = tested on: MOLT-4 leukemia
HT29 colon = tested on: HT29 colon
UO-31 renal = tested on: UO-31 renal
SK-MEL-5 melanoma = tested on: SK-MEL-5 melanoma
NCI-H460 lung = tested on: NCI-H460 lung
NCI/ADR-RES ovarian = tested on: NCI/ADR-RES ovarian
CCRF-CEM leukemia = tested on: CCRF-CEM leukemia
SW-620 colon = tested on: SW-620 colon
SNB-19 CNS = tested on: SNB-19 CNS
HCT-116 colon = tested on: HCT-116 colon
KM12 colon = tested on: KM12 colon
SK-MEL-2 melanoma = tested on: SK-MEL-2 melanoma
HOP-62 NSCLC = tested on: HOP-62 NSCLC
HOP-92 NSCLC = tested on: HOP-92 NSCLC
ACHN renal = tested on: ACHN renal
OVCAR-3 ovarian = tested on: OVCAR-3 ovarian
COLO 205 colon = tested on: COLO 205 colon
SNB-75 CNS = tested on: SNB-75 CNS
RPMI-8226 leukemia = tested on: RPMI-8226 leukemia
HCC-2998 colon = tested on: HCC-2998 colon
IGROV1 ovarian = tested on: IGROV1 ovarian
RXF 393 renal = tested on: RXF 393 renal
UACC-257 melanoma = tested on: UACC-257 melanoma
OVCAR-8 ovarian = tested on: OVCAR-8 ovarian
HL-60(TB) leukemia = tested on: HL-60(TB) leukemia
SF-268 CNS = tested on: SF-268 CNS
A549 NSCLC = tested on: A549 NSCLC
A498 renal = tested on: A498 renal
MDA-N = tested on: MDA-N
PC-3 prostate = tested on: PC-3 prostate
SF-539 CNS = tested on: SF-539 CNS
MALME-3M melanoma = tested on: MALME-3M melanoma
UACC-62 melanoma = tested on: UACC-62 melanoma
SK-OV-3 ovarian = tested on: SK-OV-3 ovarian
HCT-15 colon = tested on: HCT-15 colon
HS 578T breast = tested on: HS 578T breast
MDA-MB-231 breast = tested on: MDA-MB-231 breast
TK-10 renal = tested on: TK-10 renal
BT-549 breast = tested on: BT-549 breast
EKVX NSCLC = tested on: EKVX NSCLC
SF-295 CNS = tested on: SF-295 CNS
M14 melanoma = tested on: M14 melanoma
OVCAR-4 ovarian = tested on: OVCAR-4 ovarian
K-562 leukemia = tested on: K-562 leukemia
NCI-H23 lung = tested on: NCI-H23 lung
U251 CNS = tested on: U251 CNS
786-0 renal = tested on: 786-0 renal
MCF7 breast = tested on: MCF7 breast
NCI-H226 lung = tested on: NCI-H226 lung
T-47D breast = tested on: T-47D breast
OVCAR-5 ovarian = tested on: OVCAR-5 ovarian
NCI-H522 lung = tested on: NCI-H522 lung
LOX IMVI melanoma = tested on: LOX IMVI melanoma
SN12C renal = tested on: SN12C renal
SR leukemia = tested on: SR leukemia

CCOC(=O)C1CC(C(=O)c2ccccc2)N2c3ccccc3-c3ccccc3C12 (centres undefined)
TGI (CAKI-1 renal): > 100 µM
TGI (DU-145 prostate): > 100 µM
TGI (MDA-MB-435): > 100 µM
TGI (SK-MEL-28 melanoma): > 100 µM
TGI (MOLT-4 leukemia): > 100 µM
TGI (HT29 colon): > 100 µM
TGI (UO-31 renal): > 100 µM
TGI (SK-MEL-5 melanoma): > 100 µM
TGI (NCI-H460 lung): > 100 µM
TGI (NCI/ADR-RES ovarian): > 100 µM
TGI (CCRF-CEM leukemia): > 100 µM
TGI (SW-620 colon): > 100 µM
TGI (SNB-19 CNS): > 100 µM
TGI (HCT-116 colon): > 100 µM
TGI (KM12 colon): > 100 µM
TGI (SK-MEL-2 melanoma): > 100 µM
TGI (HOP-62 NSCLC): > 100 µM
TGI (HOP-92 NSCLC): > 100 µM
TGI (ACHN renal): > 100 µM
TGI (OVCAR-3 ovarian): > 100 µM
TGI (COLO 205 colon): > 100 µM
TGI (SNB-75 CNS): > 100 µM
TGI (RPMI-8226 leukemia): 40.8 µM
TGI (HCC-2998 colon): > 100 µM
TGI (IGROV1 ovarian): > 100 µM
TGI (RXF 393 renal): > 100 µM
TGI (UACC-257 melanoma): > 100 µM
TGI (OVCAR-8 ovarian): > 100 µM
TGI (HL-60(TB) leukemia): 29.7 µM
TGI (SF-268 CNS): > 100 µM
TGI (A549 NSCLC): > 100 µM
TGI (A498 renal): > 100 µM
TGI (MDA-N): > 100 µM
TGI (PC-3 prostate): > 100 µM
TGI (SF-539 CNS): > 100 µM
TGI (MALME-3M melanoma): > 100 µM
TGI (UACC-62 melanoma): > 100 µM
TGI (SK-OV-3 ovarian): > 100 µM
TGI (HCT-15 colon): > 100 µM
TGI (HS 578T breast): 97.2 µM
TGI (MDA-MB-231 breast): > 100 µM
TGI (TK-10 renal): > 100 µM
TGI (BT-549 breast): > 100 µM
TGI (EKVX NSCLC): > 100 µM
TGI (SF-295 CNS): > 100 µM
TGI (M14 melanoma): 74.2 µM
TGI (OVCAR-4 ovarian): > 100 µM
TGI (K-562 leukemia): > 100 µM
TGI (NCI-H23 lung): > 100 µM
TGI (U251 CNS): > 100 µM
TGI (786-0 renal): > 100 µM
TGI (MCF7 breast): > 100 µM
TGI (NCI-H226 lung): > 100 µM
TGI (T-47D breast): > 100 µM
TGI (OVCAR-5 ovarian): > 100 µM
TGI (NCI-H522 lung): > 100 µM
TGI (LOX IMVI melanoma): > 100 µM
TGI (SN12C renal): > 100 µM
TGI (SR leukemia): 84.1 µM
